pIC50: −log10 of the molar value. “And” between values parts separate entries of the source, which are not always exact repeats. Equal values may be shown once.
Molecular target: MAPK14 (human) (UniProt Q16539)
Experiment: Inhibition of LPS Stimulated TNF Production by U937 Cells
Settings: for inhibition: concentration not given here

Chain of MAPK14 (human) (Q16539 whole entry, looked up): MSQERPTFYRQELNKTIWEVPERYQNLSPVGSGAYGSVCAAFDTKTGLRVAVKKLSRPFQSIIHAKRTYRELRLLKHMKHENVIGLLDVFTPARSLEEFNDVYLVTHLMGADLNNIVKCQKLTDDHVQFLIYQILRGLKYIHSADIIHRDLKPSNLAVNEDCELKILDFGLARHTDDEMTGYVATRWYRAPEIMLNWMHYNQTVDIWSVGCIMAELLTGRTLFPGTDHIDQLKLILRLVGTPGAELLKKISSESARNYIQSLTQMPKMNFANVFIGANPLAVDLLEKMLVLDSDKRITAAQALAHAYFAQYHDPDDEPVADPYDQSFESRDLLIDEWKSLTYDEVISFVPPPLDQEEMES

| SMILES | pIC50 | inhibition [%] |
| --- | --- | --- |
| C[C@@H](NC(N)=O)c1[nH]nc(-c2ccc(F)cc2)c1-c1ccncc1 | 5.82 | – |
| CN(C)CCn1cc(-c2ccncc2)c(-c2ccc(F)cc2)n1 | 6.59 | – |
| O=S(=O)(c1ccc(F)c(F)c1)N1CCC(c2[nH]nc(-c3ccc(F)cc3)c2-c2ccncc2)CC1 | < 6.00 | – |
| C[C@H](NC(=O)c1c(F)ccc(F)c1F)c1[nH]nc(-c2ccc(F)cc2)c1-c1ccncc1 | – | 67 |
| OCCn1ncc(-c2ccnc(NCc3ccc(F)cc3)c2)c1-c1ccc(F)cc1 | 6.10 and 5.22 | – |
| CC(C)=CC(=O)N[C@H](Cc1ccccc1)c1[nH]nc(-c2ccc(F)cc2)c1-c1ccncc1 | < 6.00 | – |
| C[C@@H](NS(=O)(=O)c1ccc(Cl)c(Cl)c1)c1[nH]nc(-c2ccc(F)cc2)c1-c1ccncc1 | – | 98 |
| CN(C)c1n[nH]c(-c2ccc(F)cc2)c1-c1ccncc1 | 6.32 | – |
| COc1ccc(NC(=O)NCc2[nH]nc(-c3ccc(F)cc3)c2-c2ccncc2)cc1 | – | 31 |
| C[C@H](NC(=O)c1ccc(C(F)(F)F)cc1)c1[nH]nc(-c2ccc(F)cc2)c1-c1ccncc1 | – | 29 |
| C[C@@H](NS(=O)(=O)c1cccc(Br)c1)c1[nH]nc(-c2ccc(F)cc2)c1-c1ccncc1 | – | 95 |
| COc1cccc(CC(=O)N[C@H](C)c2[nH]nc(-c3ccc(F)cc3)c2-c2ccncc2)c1 | – | 18 |
| FC(F)(F)c1cccc(-c2n[nH]cc2-c2ccncc2)c1 | 7.06 | – |
| COc1ccc(CC(=O)NCc2[nH]nc(-c3ccc(F)cc3)c2-c2ccncc2)cc1OC | 5.00 | – |
| CC(=O)OC(C)(C)C(=O)NCc1[nH]nc(-c2ccc(F)cc2)c1-c1ccncc1 | 6.27 | – |
| Cn1cc(-c2ccncc2)c(-c2ccc(C(F)(F)F)cc2)n1 | 5.92 | – |
| O=C(N[C@H](Cc1ccccc1)c1[nH]nc(-c2ccc(F)cc2)c1-c1ccncc1)c1ccc(F)cc1 | < 6.00 | – |
| C[C@@H](NC(=O)Cc1cccs1)c1[nH]nc(-c2ccc(F)cc2)c1-c1ccncc1 | – | 33 |
| C[C@@H](NC(=O)c1c(F)cccc1C(F)(F)F)c1[nH]nc(-c2ccc(F)cc2)c1-c1ccncc1 | – | 86 |
| C[C@@H](NS(=O)(=O)c1cccc2ccccc12)c1[nH]nc(-c2ccc(F)cc2)c1-c1ccncc1 | – | 58 |
| O=C(NCc1ccc(S(=O)(=O)NCc2[nH]nc(-c3ccc(F)cc3)c2-c2ccncc2)s1)c1ccccc1 | – | 68 |
| COC(=O)c1ccccc1S(=O)(=O)NCc1[nH]nc(-c2ccc(F)cc2)c1-c1ccncc1 | 5.31 | – |
| CCCOC(=O)N[C@H](C)c1[nH]nc(-c2ccc(F)cc2)c1-c1ccncc1 | – | 54 |

| SMILES | pIC50 | inhibition [%] |
| --- | --- | --- |
| CS(=O)(=O)NCc1[nH]nc(-c2ccc(F)cc2)c1-c1ccncc1 | 5.30 | – |
| CCN(CC)CCn1cc(-c2ccncc2)c(-c2ccc(F)cc2)n1 | 6.29 | – |
| CNC(=O)N[C@H](C)c1[nH]nc(-c2ccc(F)cc2)c1-c1ccncc1 | – | 50 |
| O=C(c1ccc(Cl)cc1)N1CCC(c2[nH]nc(-c3ccc(F)cc3)c2-c2ccncc2)CC1 | 6.24 | – |
| CC(C)=CC(=O)N[C@@H](C)c1[nH]nc(-c2ccc(F)cc2)c1-c1ccncc1 | – | 21 |
| COc1cccc(C(=O)N[C@H](Cc2ccccc2)c2[nH]nc(-c3ccc(F)cc3)c2-c2ccncc2)c1 | – | 38 |
| C[C@@H](NS(=O)(=O)C[C@@]12CC[C@H](CC1=O)C2(C)C)c1[nH]nc(-c2ccc(F)cc2)c1-c1ccncc1 | – | 61 |
| O=C(N[C@H](Cc1ccccc1)c1[nH]nc(-c2ccc(F)cc2)c1-c1ccncc1)c1ccccc1C(F)(F)F | < 6.00 | 25 |
| C[C@@H](NC(=O)c1cc(C(F)(F)F)ccc1F)c1[nH]nc(-c2ccc(F)cc2)c1-c1ccncc1 | – | 43 |
| CC(C)NC(=O)N[C@H](C)c1[nH]nc(-c2ccc(F)cc2)c1-c1ccncc1 | – | 52 |
| Cc1n[nH]c(-c2ccc(N(C)C)cc2)c1-c1ccncc1 | 7.00 | – |
| O=C(NCc1[nH]nc(-c2ccc(F)cc2)c1-c1ccncc1)c1ccc(Cl)cc1Cl | – | 20 |
| COc1ccc(CC(=O)N[C@@H](C)c2[nH]nc(-c3ccc(F)cc3)c2-c2ccncc2)cc1OC | – | 28 |
| COc1ccc(OC)c(S(=O)(=O)NCCc2[nH]nc(-c3ccc(F)cc3)c2-c2ccncc2)c1 | – | 29 |
| Cc1ccc(S(C)(=O)=O)cc1S(=O)(=O)N[C@@H](C)c1[nH]nc(-c2ccc(F)cc2)c1-c1ccncc1 | – | 78 |
| C[C@@H](NC(=O)c1ccc(F)cc1C(F)(F)F)c1[nH]nc(-c2ccc(F)cc2)c1-c1ccncc1 | – | 90 |
| CC(C)c1cc(C(C)C)c(C(=O)N[C@H](C)c2[nH]nc(-c3ccc(F)cc3)c2-c2ccncc2)c(C(C)C)c1 | – | 31 |
| CCS(=O)(=O)N1CCC(c2[nH]nc(-c3ccc(F)cc3)c2-c2ccncc2)CC1 | 6.60 | – |
| CC(C)=CC(=O)NCc1[nH]nc(-c2ccc(F)cc2)c1-c1ccncc1 | 4.96 | – |
| CNC(=O)CC[C@H](NC(=O)Nc1c(C)cccc1C)c1[nH]nc(-c2ccc(F)cc2)c1-c1ccncc1 | – | 9 |
| C[C@@H](NC(=O)[C@@H]1CCCN1)c1[nH]nc(-c2ccc(F)cc2)c1-c1ccncc1 | – | 27 |
| CN(C)CCCNC(=O)NCCCc1[nH]nc(-c2ccc(F)cc2)c1-c1ccncc1 | < 6.00 | – |
| CNC(=O)CC[C@H](NC(=O)C(C)C)c1[nH]nc(-c2ccc(F)cc2)c1-c1ccncc1 | – | 25 |

| SMILES | pIC50 | inhibition [%] |
| --- | --- | --- |
| C[C@@H](NC(=O)c1cc(F)c(F)cc1F)c1[nH]nc(-c2ccc(F)cc2)c1-c1ccncc1 | – | 52 |
| O=C(NCc1[nH]nc(-c2ccc(F)cc2)c1-c1ccncc1)c1ccc(F)cc1F | – | 54 |
| CC(=O)OC(C)(C)C(=O)N[C@H](Cc1ccccc1)c1[nH]nc(-c2ccc(F)cc2)c1-c1ccncc1 | < 6.00 | – |
| O=S(=O)(NCCc1[nH]nc(-c2ccc(F)cc2)c1-c1ccncc1)c1cc(Cl)cc(Cl)c1O | – | 50 |
| Fc1ccc(CNc2cc(-c3cnn(CCN4CCOCC4)c3-c3ccc(F)cc3)ccn2)cc1 | 6.35 | – |
| O=S(=O)(NCc1[nH]nc(-c2ccc(F)cc2)c1-c1ccncc1)c1ccccc1C(F)(F)F | – | 46 |
| C[C@H](NS(=O)(=O)c1cccc2c(N(C)C)cccc12)c1[nH]nc(-c2ccc(F)cc2)c1-c1ccncc1 | – | 68 |
| NS(=O)(=O)c1ccc(CNC(=O)NCCCc2[nH]nc(-c3ccc(F)cc3)c2-c2ccncc2)cc1 | < 6.00 | – |
| O=C(NCc1[nH]nc(-c2ccc(F)cc2)c1-c1ccncc1)Nc1ccccc1-c1ccccc1 | – | 2 |
| O=C(NCc1[nH]nc(-c2ccc(F)cc2)c1-c1ccncc1)c1c(F)cccc1F | – | 48 |
| Cc1c(-c2ccncc2)c(-c2ccc(F)cc2)nn1CC(=O)NCCc1cccs1 | – | 36 |
| CCNC(=O)N1CCC(c2[nH]nc(-c3ccc(F)cc3)c2-c2ccncc2)CC1 | 6.14 | – |
| CCCNC(=O)N[C@@H](C)c1[nH]nc(-c2ccc(F)cc2)c1-c1ccncc1 | 4.42 | – |
| Cc1noc(C)c1C(=O)N[C@@H](C)c1[nH]nc(-c2ccc(F)cc2)c1-c1ccncc1 | – | 32 |
| C[C@@H](NC(=O)c1cc(F)cc(F)c1)c1[nH]nc(-c2ccc(F)cc2)c1-c1ccncc1 | – | 48 |
| C[C@H](NC(=O)c1ccc(C(F)(F)F)cc1F)c1[nH]nc(-c2ccc(F)cc2)c1-c1ccncc1 | – | 33 |
| O=S(=O)(NCc1[nH]nc(-c2ccc(F)cc2)c1-c1ccncc1)c1ccc(-c2ccon2)s1 | – | 89 |
| C[C@@H](NS(=O)(=O)C[C@]12CC[C@@H](CC1=O)C2(C)C)c1[nH]nc(-c2ccc(F)cc2)c1-c1ccncc1 | – | 65 |
| COc1ccc(S(=O)(=O)N[C@@H](Cc2ccccc2)c2[nH]nc(-c3ccc(F)cc3)c2-c2ccncc2)cc1OC | > 6.00 | – |
| Cc1cnccc1-c1cn(C)nc1-c1ccc(F)cc1 | 6.12 | – |
| C=CCNC(=O)N[C@@H](C)c1[nH]nc(-c2ccc(F)cc2)c1-c1ccncc1 | – | 42 |
| C[C@H](NS(=O)(=O)c1ccc(Cl)s1)c1[nH]nc(-c2ccc(F)cc2)c1-c1ccncc1 | – | 95 |
| O=C(N[C@H](Cc1ccccc1)c1[nH]nc(-c2ccc(F)cc2)c1-c1ccncc1)C1CCCC1 | – | 3 |

| SMILES | pIC50 | inhibition [%] |
| --- | --- | --- |
| CN(C)CCn1cc(-c2ccnc(CCc3ccc(F)cc3)c2)c(-c2ccc(F)cc2)n1 | < 5.00 | – |
| CNC(=O)N[C@@H](Cc1ccccc1)c1[nH]nc(-c2ccc(F)cc2)c1-c1ccncc1 | – | 11 |
| C[C@H](NS(=O)(=O)C[C@]12CC[C@@H](CC1=O)C2(C)C)c1[nH]nc(-c2ccc(F)cc2)c1-c1ccncc1 | – | 60 |
| COc1ccccc1C(=O)N[C@H](Cc1ccccc1)c1[nH]nc(-c2ccc(F)cc2)c1-c1ccncc1 | < 6.00 | 2 |
| Cc1ccc(C)c(S(=O)(=O)N[C@@H](C)c2[nH]nc(-c3ccc(F)cc3)c2-c2ccncc2)c1 | – | 80 |
| CCCCCCCCS(=O)(=O)NCc1[nH]nc(-c2ccc(F)cc2)c1-c1ccncc1 | – | 12 |
| COc1ccc(S(=O)(=O)NCc2[nH]nc(-c3ccc(F)cc3)c2-c2ccncc2)cc1 | 5.75 | – |
| C[C@H](NS(=O)(=O)c1cccc2cccnc12)c1[nH]nc(-c2ccc(F)cc2)c1-c1ccncc1 | – | 58 |
| C[C@H](NC(=O)c1cccc(Cl)c1Cl)c1[nH]nc(-c2ccc(F)cc2)c1-c1ccncc1 | – | 17 |
| CCNC(=O)NCc1[nH]nc(-c2ccc(F)cc2)c1-c1ccncc1 | – | 28 |
| Cc1cccc(Cl)c1S(=O)(=O)N[C@H](C)c1[nH]nc(-c2ccc(F)cc2)c1-c1ccncc1 | – | 77 |
| C[C@@H](NC(=O)C1CCC1)c1[nH]nc(-c2ccc(F)cc2)c1-c1ccncc1 | – | 19 |
| CNC(=O)N[C@@H](C)c1[nH]nc(-c2ccc(F)cc2)c1-c1ccncc1 | – | 79 |
| C[C@H](NC(=O)c1cccc(Br)c1)c1[nH]nc(-c2ccc(F)cc2)c1-c1ccncc1 | – | 21 |
| O=C(NCc1[nH]nc(-c2ccc(F)cc2)c1-c1ccncc1)Nc1ccc(OC(F)(F)F)cc1 | – | 11 |
| O=S(=O)(NCc1[nH]nc(-c2ccc(F)cc2)c1-c1ccncc1)c1ccc(S(=O)(=O)c2ccccc2)s1 | – | 64 |
| CC(Oc1ccccc1)C(=O)NCc1[nH]nc(-c2ccc(F)cc2)c1-c1ccncc1 (configuration not stated) | 5.65 | – |
| Cc1cc(C)c(S(=O)(=O)N[C@H](C)c2[nH]nc(-c3ccc(F)cc3)c2-c2ccncc2)c(C)c1 | – | 65 |
| O=C(NCCc1[nH]nc(-c2ccc(F)cc2)c1-c1ccncc1)c1cnc2ccccc2n1 | – | 20 |
| CCN(CC)CCn1cc(-c2ccnc(NCc3ccc(F)cc3)c2)c(-c2ccc(F)cc2)n1 | 6.15 | – |
| OCCCNc1cc(-c2c[nH]nc2-c2ccc(F)cc2)ccn1 | 7.01 | – |
